Experimental data as given in ChEMBL document CHEMBL3603746, “Discovery of New H2S Releasing Phosphordithioates and 2,3-Dihydro-2-phenyl-2-sulfanylenebenzo[d][1,3,2]oxazaphospholes with Improved Antiproliferative Activity” (J Med Chem, 2015).

Key:
[1] = Toxicity in human WI38 cells assessed as inhibition of cell proliferation after 4 days by crystal violet assay
[2] = Induction of H2S release in 10% PBS:MeCN solution at 1 mM incubated at 22 degC in dark condition measured at 72 hrs by 2, 6-dansyl azide probed-based fluorescence assay; type: physicochemical; details: buffer, 1000 µM
[3] = Induction of H2S release in 10% PBS:MeCN solution at 100 uM incubated at 37 degC in dark condition measured at 72 hrs by 2, 6-dansyl azide probed-based fluorescence assay; type: physicochemical; details: buffer
[4] = Therapeutic index, ratio of IC50 for human WI38 cells to IC50 for human SKOV3 cells; details: WI38 cells and SKOV3 cells
SK-OV-3 = experiment: Cytotoxicity against human SKOV3 cells assessed as inhibition of cell proliferation after 4 days by crystal violet assay; type: functional, cell-based; details: SK-OV-3, 96 h
MCF7 [5] = experiment: Cytotoxicity against human MCF7 cells assessed as inhibition of cell proliferation after 4 days by crystal violet assay; type: functional, cell-based; details: MCF7, 96 h
[6] = Therapeutic index, ratio of IC50 for human WI38 cells to IC50 for human MCF7 cells; details: WI38 cells and MCF7 cells
[7] = Induction of H2S release in 10% PBS:MeCN solution at 5 mM incubated at 22 degC in dark condition measured at 96 hrs by 2, 6-dansyl azide probed-based fluorescence assay relative to control; details: buffer, 5000 µM
PC-3 = experiment: cells; type: functional, cell-based; details: Homo sapiens, PC-3, 72 h
Description: Cytotoxicity against human PC3 cells assessed as inhibition of cell proliferation after 72 hrs by MTT assay

[8] = Induction of H2S release in 10% PBS:MeCN solution at 5 mM incubated at 37 degC in dark condition measured at 96 hrs by 2, 6-dansyl azide probed-based fluorescence assay relative to GYY4137; type: physicochemical; details: buffer, 5000 µM
[9] = Induction of H2S release in 10% PBS:MeCN solution at 5 mM incubated at 37 degC in dark condition measured at 96 hrs by 1 mM 2, 6-dansyl azide probed-based fluorescence assay relative to control; details: buffer, 5000 µM
Hepatocyte = experiment: Toxicity in transforming growth factor alpha transgenic mouse hepatocytes at 100 uM after 24 hrs by CellTiter-Glo cell viability assay; type: cell-based
[10] = Induction of H2S release in aqueous acetonitrile solution at 400 uM measured over 4 days by probe 21-based fluorescence assay; details: buffer, 96 h
MCF7 [11] = experiment: cells; type: functional, cell-based; details: Homo sapiens, MCF7, 72 h
Description: Cytotoxicity against human MCF7 cells assessed as inhibition of cell proliferation after 72 hrs by MTT assay

MDA-MB-231 = experiment: cells; type: functional, cell-based; details: Homo sapiens, MDA-MB-231, 72 h
Description: Cytotoxicity against human MDA-MB-231 cells assessed as inhibition of cell proliferation after 72 hrs by MTS assay

[12] = Effective permeability of the compound at 500 uM after 6 hrs by PAMPA; details: PAMPA
[13] = Induction of H2S release in aqueous acetonitrile solution at 200 uM measured over 4 days by probe 21-based fluorescence assay; details: buffer, 96 h
[14] = Therapeutic index, ratio of IC50 for human WI38 cells to IC50 for human PC3 cells; details: WI38 cells and PC3 cells
[15] = Induction of H2S release in 10% PBS:MeCN solution at 5 mM incubated at 22 degC in dark condition measured at 96 hrs by 2, 6-dansyl azide probed-based fluorescence assay relative to GYY4137; type: physicochemical; details: buffer, 5000 µM
[16] = Therapeutic index, ratio of IC50 for human WI38 cells to IC50 for human MBA-MD-231 cells; details: WI38 cells and MBA-MD-231 cells
[17] = Effective permeability of the compound at 500 uM after 16 hrs by PAMPA
[18] = Induction of H2S release in 10% PBS:MeCN solution assessed as ratio of H2S level at 37 degC to H2S level at 22 degC at 5 mM incubated in dark condition measured at 96 hrs by 2, 6-dansyl azide probed-based fluorescence assay; details: buffer, 5000 µM
[19] = Induction of H2S release in 10% PBS:MeCN solution at 5 mM incubated at 37 degC in dark condition measured at 96 hrs by 0.2 mM 2, 6-dansyl azide probed-based fluorescence assay relative to control; type: physicochemical; details: buffer, 5000 µM
physchem [20] = details: DMSO, pH 7.4
Description: Kinetic solubility of the compound in DMSO at pH 7.4 measured at 24 hrs by multiscreen filter paper-based UV absorbance analysis

physchem [21] = details: DMSO, pH 7.4; remark: listed apart in the source
Description: Kinetic solubility of the compound in DMSO at pH 7.4 measured at 3 hrs by multiscreen filter paper-based UV absorbance analysis

## COc1ccc(P2(=S)Nc3ccc(C)cc3O2)cc1 (stereo not given)
[1]
  IC50 at 4 days: > 400 µM
[2]
  Activity: 59 µM
[3]
  Activity: 48.2 µM
[4]
  selectivity ratio: 1.9
SK-OV-3
  IC50: 211 µM
MCF7 [5]
  IC50: 93.2 µM

## COc1ccc(P2(=S)Nc3cc(F)ccc3O2)cc1 (stereo not given)
[1]
  IC50 at 4 days: > 200 µM
[2]
  Activity: 53.8 µM
[3]
  Activity: 33.3 µM
[4]
  selectivity ratio: 2.8
SK-OV-3
  IC50: 70.8 µM
MCF7 [5]
  IC50: 33.6 µM

## COc1ccc(P2(=S)Oc3ccccc3N2C)cc1 (stereo not given)
[1]
  IC50 at 4 days: 92.5 µM
[2]
  Activity: 2.1 µM
[3]
  Activity: 10.1 µM
[6]
  selectivity ratio: 2.1
[4]
  selectivity ratio: 2.1
SK-OV-3
  IC50: 44.2 µM
MCF7 [5]
  IC50: 42.6 µM

## C1COCCN1.S=P(S)(c1ccc(Oc2ccccc2)cc1)N1CCOCC1 (stereo not given)
[7]
  %max: 1.68%
PC-3
  IC50: 102 µM
[8]
  fold change (FC): 0.9
[9]
  %max: 5.54%
[1]
  IC50 at 4 days: 656 µM
Hepatocyte
  Activity: Non-toxic
[10]
  Activity: 5.47 µM
MCF7 [11]
  IC50: 163 µM
MDA-MB-231
  IC50: 95.2 µM
[6]
  selectivity ratio: 2
[12]
  Papp at 6 h, 500 µM: 0.15 nm/s
[4]
  selectivity ratio: 2
[13]
  Activity: 4.14 µM
[14]
  selectivity ratio: 2
[15]
  fold change (FC): 1.2
SK-OV-3
  IC50: 326 µM
[16]
  selectivity ratio: 2
MCF7 [5]
  IC50: 195 µM
[17]
  Papp at 16 h, 500 µM: 0.13 nm/s
[18]
  Ratio: 3.3

## CN1c2ccccc2OP1(=S)c1ccccc1 (stereo not given)
[1]
  IC50 at 4 days: 207 µM
[2]
  Activity: 24.4 µM
[3]
  Activity: 20.7 µM
[6]
  selectivity ratio: 2.8
[4]
  selectivity ratio: 2.8
SK-OV-3
  IC50: 69.4 µM
MCF7 [5]
  IC50: 72.7 µM

## CCNCCOP(=S)(S)c1ccc(OC)cc1 (stereo not given)
[7]
  %max: < 0.01%
[8]
  fold change (FC): < 0.1
MCF7 [11]
  IC50: 481 µM
MDA-MB-231
  IC50: > 500 µM
[12]
  Papp at 6 h, 500 µM: 0.13 nm/s
[19]
  %max: 0.03%
SK-OV-3
  IC50: > 400 µM
MCF7 [5]
  IC50: > 400 µM
Physchem [20]
  solubility kinetic at 24 h: > 0.29 mg/mL
Physchem [21]
  solubility kinetic at 3 h: > 0.29 mg/mL
[17]
  Papp at 16 h, 500 µM: 0.041 nm/s

## C1COCCN1.COP(=S)(S)c1ccc(Oc2ccccc2)cc1 (stereo not given)
[7]
  %max: 0.06%
PC-3
  IC50: 73.1 µM
[8]
  fold change (FC): < 0.1
[1]
  IC50 at 4 days: 347 µM
MCF7 [11]
  IC50: 202 µM
MDA-MB-231
  IC50: 87 µM
[6]
  selectivity ratio: 1.9
[4]
  selectivity ratio: 1.9
[14]
  selectivity ratio: 1.9
[19]
  %max: 0.16%
[15]
  fold change (FC): < 0.1
SK-OV-3
  IC50: 165 µM
[16]
  selectivity ratio: 1.9
MCF7 [5]
  IC50: 181 µM
[18]
  Ratio: 2.7

## Fc1ccc2c(c1)NP(=S)(c1ccc(Oc3ccccc3)cc1)O2 (stereo not given)
[1]
  IC50 at 4 days: 65.6 µM
[2]
  Activity: 5 µM
[3]
  Activity: Not Active
[6]
  selectivity ratio: 1.7
[4]
  selectivity ratio: 1.7
SK-OV-3
  IC50: 38.1 µM
MCF7 [5]
  IC50: 13.6 µM

## COc1ccc(P(=S)(S)NCc2ccccc2)cc1.NCc1ccccc1 (stereo not given)
[7]
  %max: 2.19%
PC-3
  IC50: 31.9 µM
[8]
  fold change (FC): 0.8
[9]
  %max: 5.07%
[1]
  IC50 at 4 days: 208 µM
[10]
  Activity: 10.29 µM
MCF7 [11]
  IC50: 82.4 µM
MDA-MB-231
  IC50: 41.1 µM
[6]
  selectivity ratio: 2.3
[4]
  selectivity ratio: 2.3
[13]
  Activity: 5.55 µM
[14]
  selectivity ratio: 2.3
[15]
  fold change (FC): 1.5
SK-OV-3
  IC50: 89.9 µM
[16]
  selectivity ratio: 2.3
MCF7 [5]
  IC50: 84.2 µM
[18]
  Ratio: 2.3

## C1COCCN1.CCCCOP(=S)(S)c1ccc(OC)cc1 (stereo not given)
[7]
  %max: 0.04%
PC-3
  IC50: 79.1 µM
[8]
  fold change (FC): < 0.1
[1]
  IC50 at 4 days: 177 µM
MCF7 [11]
  IC50: 193 µM
MDA-MB-231
  IC50: 77.6 µM
[6]
  selectivity ratio: 1.1
[4]
  selectivity ratio: 1.1
[14]
  selectivity ratio: 1.1
[19]
  %max: 0.12%
[15]
  fold change (FC): < 0.1
[16]
  selectivity ratio: 1.1
MCF7 [5]
  IC50: 92 µM
[18]
  Ratio: 3.2
